Data as given in patent US11013249B2, “Compositions for controlled release of volatile compounds” (University of Guelph, priority 2016, dated 2021).
≈ marks a conversion by molar mass, not a printed value.

Key:
[1] = system: Yeast; test: Inhibitory effects of AITC, diacetyl and cinnamaldehyde vapour; type: cell-based, yeast isolated from mung bean sprouts
Experimental: (§1) P. fluorescens was selected as a model spoilage bacteria, while mould and yeast were isolated from spoiled mung bean sprouts with bacteria excluded by cultivating in potato dextrose broth (PDB) (Sigma, Oakville, ON, Canada) at pH 5.6±0.2. Yeast and P. fluorescens stocks were cultivated in PDB and trypticase soy broth (TSB) (Bacto, BD, Sparks, USA), respectively, at 30° C. for 24 h and diluted with sterile saline solution (NaCl, 8.5 g/L water) to a concentration of 10^6 CFU/mL. An aliquot of 50 μL of the prepared yeast or bacteria suspension was spread on potato dextrose agar (PDA) (Difco, BD, Sparks, USA) or trypticase soy agar (TSA) (Bacto, BD, Sparks, USA), respectively, in 5 cm diameter petri dishes (Fisher Scientific, Ottawa, ON, Canada). Mycelium of mould was inoculated as one spot at the center of the PDA dishes. Two freshly inoculated petri dishes of same microorganism, with their lids removed, were placed in a one-liter glass jar. […] The growth of the microorganisms was monitored by the colony formation for 3 days.

[2] = system: Mould; test: as above; type: cell-based, mould isolated from mung bean sprouts; settings: 25° C.
Experimental: as §1

[3] = system: P. aphanidermatum; test: Antimicrobial efficacy of pure CA and PLA-PEO-CA nonwoven; type: cell-based, Pythium aphanidermatum; settings: 25° C.
Experimental: (§2) The antimicrobial activity of PLA-PEO-CA nonwoven was tested on two spoilage microorganisms, P. fluorescens and P. aphanidermatum. One of each freshly inoculated P. fluorescens and P. aphanidermatum petri dishes, with the lid removed, were placed in a one-liter glass jar. A piece of PLA-PEO-CA nonwoven or a certain amount of liquid CA was placed in the middle of the jar without touching the petri dishes and the lid was closed immediately. The jar was incubated at 25° C. The growth of the microorganisms was monitored every 24 h for 4 d.

[4] = system: P. Fluorescens; test: Inhibitory effects of AITC, diacetyl and cinnamaldehyde vapour; type: cell-based, Pseudomonas fluorescens P33; settings: 25° C.
Experimental: as §1

[5] = system: P. Fluorescens; test: Antimicrobial efficacy of pure CA and PLA-PEO-CA nonwoven; type: cell-based, Pseudomonas fluorescens; settings: 25° C.
Experimental: as §2

[6] = 25° C.; cited from earlier work
[7] = Amount 2 mg in one-liter jar, 25° C.
[8] = Amount 5 mg in one-liter jar, 25° C.
[9] = Amount 10 mg in one-liter jar, 25° C.
[10] = Amount 20 mg in one-liter jar, 25° C.

O=CC=Cc1ccccc1 [Cinnamaldehyde]
Yeast day1, visual colony number [1, 7]: + (less than 15)
Yeast day2, visual colony number [1, 7]: + (less than 15)
Yeast day3, visual colony number [1, 7]: ++ (15-50)
Yeast day1, visual colony number [1, 8]: + (less than 15)
Yeast day2, visual colony number [1, 8]: + (less than 15)
Yeast day3, visual colony number [1, 8]: + (less than 15)
Yeast day1, visual colony number [1, 9]: + (less than 15)
Yeast day2, visual colony number [1, 9]: + (less than 15)
Yeast day3, visual colony number [1, 9]: + (less than 15)
Yeast day1, visual colony number [1, 10]: + (less than 15)
Yeast day2, visual colony number [1, 10]: + (less than 15)
Yeast day3, visual colony number [1, 10]: + (less than 15)
MIC ([1]; established on yeast, mould and P. fluorescens from Table 8, read-out: minimum inhibition concentration (MIC)): 30 mg/L (≈ 227 µM)
effective concentration against yeast ([1]; vapour in one-liter jar, 25° C.): 30 mg/L
Mould day1, visual colony number ([2]; Amount 2 mg in one-liter jar): ++ (15-50)
Mould day2, visual colony number ([2]; Amount 2 mg in one-liter jar): ++ (15-50)
Mould day3, visual colony number ([2]; Amount 2 mg in one-liter jar): ++ (15-50)
Mould day1, visual colony number ([2]; Amount 5 mg in one-liter jar): + (less than 15)
Mould day2, visual colony number ([2]; Amount 5 mg in one-liter jar): + (less than 15)
Mould day3, visual colony number ([2]; Amount 5 mg in one-liter jar): + (less than 15)
Mould day1, visual colony number ([2]; Amount 10 mg in one-liter jar): + (less than 15)
Mould day2, visual colony number ([2]; Amount 10 mg in one-liter jar): + (less than 15)
Mould day3, visual colony number ([2]; Amount 10 mg in one-liter jar): + (less than 15)
Mould day1, visual colony number ([2]; Amount 20 mg in one-liter jar): + (less than 15)
Mould day2, visual colony number ([2]; Amount 20 mg in one-liter jar): + (less than 15)
Mould day3, visual colony number ([2]; Amount 20 mg in one-liter jar): + (less than 15)
concentration that inhibited the growth of mould for three days ([2]; vapour in one-liter jar): 30 mg/L
P. aphanidermatum Day 1, colony diameter ([3]; 2 mg liquid CA in 1 L jar): 1.3 mm
P. aphanidermatum Day 2, colony diameter ([3]; 2 mg liquid CA in 1 L jar): 2.8 mm
P. aphanidermatum Day 3, colony diameter ([3]; 2 mg liquid CA in 1 L jar): 4 mm
P. aphanidermatum Day 4, colony diameter ([3]; 2 mg liquid CA in 1 L jar): 5 mm
P. aphanidermatum Day 1, colony diameter ([3]; 5 mg liquid CA in 1 L jar): 1 mm
P. aphanidermatum Day 2, colony diameter ([3]; 5 mg liquid CA in 1 L jar): 2.1 mm
P. aphanidermatum Day 3, colony diameter ([3]; 5 mg liquid CA in 1 L jar): 2.8 mm
P. aphanidermatum Day 4, colony diameter ([3]; 5 mg liquid CA in 1 L jar): 3.5 mm
P. aphanidermatum Day 1, colony diameter ([3]; 10 mg liquid CA in 1 L jar): 0.8 mm
P. aphanidermatum Day 2, colony diameter ([3]; 10 mg liquid CA in 1 L jar): 1.6 mm
P. aphanidermatum Day 3, colony diameter ([3]; 10 mg liquid CA in 1 L jar): 2.2 mm
P. aphanidermatum Day 4, colony diameter ([3]; 10 mg liquid CA in 1 L jar): 2.7 mm
P. aphanidermatum Day 1, colony diameter ([3]; 30 mg liquid CA in 1 L jar): 0.7 mm
P. aphanidermatum Day 2, colony diameter ([3]; 30 mg liquid CA in 1 L jar): 1.4 mm
P. aphanidermatum Day 3, colony diameter ([3]; 30 mg liquid CA in 1 L jar): 1.8 mm
P. aphanidermatum Day 4, colony diameter ([3]; 30 mg liquid CA in 1 L jar): 2 mm
P. Fluorescens day1, visual colony number ([4]; Amount 2 mg in one-liter jar): +++ (50-150)
P. Fluorescens day2, visual colony number ([4]; Amount 2 mg in one-liter jar): +++ (50-150)
P. Fluorescens day1, visual colony number ([4]; Amount 5 mg in one-liter jar): ++ (15-50)
P. Fluorescens day2, visual colony number ([4]; Amount 5 mg in one-liter jar): ++ (15-50)
P. Fluorescens day1, visual colony number ([4]; Amount 10 mg in one-liter jar): + (less than 15)
P. Fluorescens day2, visual colony number ([4]; Amount 10 mg in one-liter jar): + (less than 15)
P. Fluorescens day1, visual colony number ([4]; Amount 20 mg in one-liter jar): + (less than 15)
P. Fluorescens day2, visual colony number ([4]; Amount 20 mg in one-liter jar): + (less than 15)
effective concentration against P. fluorescens ([4]; vapour in one-liter jar): 30 mg/L
P. Fluorescens Day 1, visual colony number ([5]; 2 mg liquid CA in 1 L jar): ++ (15-50)
P. Fluorescens Day 2, visual colony number ([5]; 2 mg liquid CA in 1 L jar): ++++ (more than 150)
P. Fluorescens Day 3, visual colony number ([5]; 2 mg liquid CA in 1 L jar): ++++ (more than 150)
P. Fluorescens Day 4, visual colony number ([5]; 2 mg liquid CA in 1 L jar): ++++ (more than 150)
P. Fluorescens Day 1, visual colony number ([5]; 5 mg liquid CA in 1 L jar): ++ (15-50)
P. Fluorescens Day 2, visual colony number ([5]; 5 mg liquid CA in 1 L jar): ++++ (more than 150)
P. Fluorescens Day 3, visual colony number ([5]; 5 mg liquid CA in 1 L jar): ++++ (more than 150)
P. Fluorescens Day 4, visual colony number ([5]; 5 mg liquid CA in 1 L jar): ++++ (more than 150)
P. Fluorescens Day 1, visual colony number ([5]; 10 mg liquid CA in 1 L jar): + (less than 15)
P. Fluorescens Day 2, visual colony number ([5]; 10 mg liquid CA in 1 L jar): +++ (50-150)
P. Fluorescens Day 3, visual colony number ([5]; 10 mg liquid CA in 1 L jar): +++ (50-150)
P. Fluorescens Day 4, visual colony number ([5]; 10 mg liquid CA in 1 L jar): +++ (50-150)
P. Fluorescens Day 2, visual colony number ([5]; 30 mg liquid CA in 1 L jar): + (less than 15)
P. Fluorescens Day 3, visual colony number ([5]; 30 mg liquid CA in 1 L jar): + (less than 15)
P. Fluorescens Day 4, visual colony number ([5]; 30 mg liquid CA in 1 L jar): + (less than 15)

O=C(O)C=Cc1ccccc1 [cinnamic acid]
vapor pressure [6]: 0.0047 mm Hg

Cc1ccc(C(C)C)c(O)c1 [thymol, Thymol]
vapor pressure [6]: 0.0054 kPa
